The target in test [1] is Melanocortin receptor 1 (Xenopus laevis). As to the kind of experiment: Agonistic activity towards Melanocortin 1 receptor in the Xenopus frog skin assay.
The subject of test [2] is Melanocortin receptor 1 (Xenopus laevis). As to the kind of experiment: Antagonistic activity towards Melanocortin 1 receptor in Xenopus frog skin using competitive binding in the presence of 500 pM of alpha-melanocyte stimulating hormone.

SMILES strings stand for the structures.

In general, EC50 refers to the concentration giving half of the maximal effect. Low readings indicate a more potent agent, high ones a less potent agent.

The compound `CC(C)[C@H](NC(=O)[C@@H]1CCC(=O)NCC(=O)N[C@@H](Cc2c[nH]cn2)C(=O)N[C@H](Cc2ccccc2)C(=O)N[C@@H](CCCN=C(N)N)C(=O)N[C@@H](Cc2c[nH]c3ccccc23)C(=O)N1)C(=O)N[C@H](C(=O)NCC(N)=O)C(C)C` displayed an EC50 in test [1] of 510 nM. The IC50 entry in test [2] is reported as “Not Active”.
On the same counts, the results for `CC(C)[C@H](NC(=O)[C@@H]1CCC(=O)NCCCCCC(=O)N[C@@H](Cc2c[nH]cn2)C(=O)N[C@@H](Cc2ccccc2)C(=O)N[C@@H](CCCN=C(N)N)C(=O)N[C@@H](Cc2c[nH]c3ccccc23)C(=O)N1)C(=O)N[C@H](C(=O)NCC(N)=O)C(C)C` are more than 10000 nM and “Not Active”.
On the same counts, the results for `CC(C)[C@H](NC(=O)[C@@H]1CCC(=O)NCCCCCC(=O)N[C@@H](Cc2c[nH]cn2)C(=O)N[C@H](Cc2ccccc2)C(=O)N[C@@H](CCCN=C(N)N)C(=O)N[C@@H](Cc2c[nH]c3ccccc23)C(=O)N1)C(=O)N[C@H](C(=O)NCC(N)=O)C(C)C` are 23 nM and “Not Active”.
In turn, `CC(C)[C@H](NC(=O)[C@@H]1CCC(=O)NCCCC(=O)N[C@@H](Cc2c[nH]cn2)C(=O)N[C@@H](Cc2ccccc2)C(=O)N[C@@H](CCCN=C(N)N)C(=O)N[C@@H](Cc2c[nH]c3ccccc23)C(=O)N1)C(=O)N[C@H](C(=O)NCC(N)=O)C(C)C` came in with a 50% effective concentration (EC50) in test [1] of 2700 nM. In test [2], the IC50 result was “Not Active”.
`CC(C)[C@H](NC(=O)[C@@H]1CCC(=O)NCCC(=O)N[C@@H](Cc2c[nH]cn2)C(=O)N[C@H](Cc2ccccc2)C(=O)N[C@@H](CCCN=C(N)N)C(=O)N[C@@H](Cc2c[nH]c3ccccc23)C(=O)N1)C(=O)N[C@H](C(=O)NCC(N)=O)C(C)C`: the IC50 result in test [2] is given as “Not Active”.
The compound `CC(C)[C@H](NC(=O)[C@@H]1CCC(=O)NCCC(=O)N[C@@H](Cc2cnc[nH]2)C(=O)N[C@H](Cc2ccccc2)C(=O)N[C@@H](CCCNC(=N)N)C(=O)N[C@@H](Cc2c[nH]c3ccccc23)C(=O)N1)C(=O)N[C@H](C(=O)NCC(N)=O)C(C)C` came in with an EC50 in test [1] of 31 nM.
Still for that read-out and setting: next, `CC(C)[C@H](NC(=O)[C@@H]1CCC(=O)NCC(=O)N2CCC[C@H]2C(=O)N[C@H](Cc2ccccc2)C(=O)N[C@@H](CCCN=C(N)N)C(=O)N[C@@H](Cc2c[nH]c3ccccc23)C(=O)N1)C(=O)N[C@H](C(=O)NCC(N)=O)C(C)C`: more than 10000 nM.
The compound `CC(C)[C@H](NC(=O)[C@@H]1CCC(=O)N[C@@H](Cc2c[nH]cn2)C(=O)N[C@H](Cc2ccc3ccccc3c2)C(=O)N[C@@H](CCCN=C(N)N)C(=O)N[C@@H](Cc2c[nH]c3ccccc23)C(=O)N1)C(=O)N[C@H](C(=O)NCC(N)=O)C(C)C` displayed an EC50 in test [1] of 60 nM. In test [2], the IC50 entry is on record as “Not Active”.
In test [1], `CC(C)[C@H](NC(=O)[C@@H]1CCC(=O)NCCC(=O)N[C@@H](Cc2c[nH]cn2)C(=O)N[C@H](Cc2ccc3ccccc3c2)C(=O)N[C@@H](CCCN=C(N)N)C(=O)N[C@@H](Cc2c[nH]c3ccccc23)C(=O)N1)C(=O)N[C@H](C(=O)NCC(N)=O)C(C)C` yielded an EC50 of 2 nM. Besides, the IC50 result in test [2] is “Not Active”.
On the same counts, the results for `CC(C)[C@H](NC(=O)[C@@H]1CCC(=O)NCCCC(=O)N[C@@H](Cc2c[nH]cn2)C(=O)N[C@H](Cc2ccccc2)C(=O)N[C@@H](CCCN=C(N)N)C(=O)N[C@@H](Cc2c[nH]c3ccccc23)C(=O)N1)C(=O)N[C@H](C(=O)NCC(N)=O)C(C)C` are 313 nM and “Not Active”.
Regarding `CC(C)[C@H](NC(=O)[C@@H]1CCC(=O)N[C@@H](Cc2cnc[nH]2)C(=O)N[C@@H](Cc2ccccc2)C(=O)N[C@@H](CCCNC(=N)N)C(=O)N[C@@H](Cc2c[nH]c3ccccc23)C(=O)N1)C(=O)N[C@H](C(=O)NCC(N)=O)C(C)C`, the 50% effective concentration (EC50) in test [1] is more than 10000 nM.
Regarding `CC(C)[C@H](NC(=O)[C@@H]1CCC(=O)NCCCC(=O)N[C@@H](Cc2c[nH]cn2)C(=O)N[C@H](Cc2ccc3ccccc3c2)C(=O)N[C@@H](CCCN=C(N)N)C(=O)N[C@@H](Cc2c[nH]c3ccccc23)C(=O)N1)C(=O)N[C@H](C(=O)NCC(N)=O)C(C)C`, the IC50 entry in test [2] is “Not Active”.
In turn, `CC(C)[C@H](NC(=O)[C@@H]1CCC(=O)NCCCC(=O)N[C@@H](Cc2cnc[nH]2)C(=O)N[C@H](Cc2ccc3ccccc3c2)C(=O)N[C@@H](CCCNC(=N)N)C(=O)N[C@@H](Cc2c[nH]c3ccccc23)C(=O)N1)C(=O)N[C@H](C(=O)NCC(N)=O)C(C)C` came in with an EC50 in test [1] of 23 nM.
Regarding `CC(C)[C@H](NC(=O)[C@@H]1CCC(=O)NCC(=O)N[C@@H](Cc2c[nH]cn2)C(=O)N[C@H](Cc2ccc3ccccc3c2)C(=O)N[C@@H](CCCN=C(N)N)C(=O)N[C@@H](Cc2c[nH]c3ccccc23)C(=O)N1)C(=O)N[C@H](C(=O)NCC(N)=O)C(C)C`, in test [1], the concentration for a half-maximal effect (EC50) stood at 60 nM. The IC50 result in test [2] is recorded as “Not Active”.
`CC(C)[C@H](NC(=O)[C@@H]1CCC(=O)N2CCC[C@H]2C(=O)N[C@H](Cc2ccc3ccccc3c2)C(=O)N[C@@H](CCCN=C(N)N)C(=O)N[C@@H](Cc2c[nH]c3ccccc23)C(=O)N1)C(=O)N[C@H](C(=O)NCC(N)=O)C(C)C`: the EC50 in test [1] was more than 10000 nM.
Regarding `CC(C)[C@H](NC(=O)[C@@H]1CCC(=O)NCC(=O)N2CCC[C@H]2C(=O)N[C@H](Cc2ccc3ccccc3c2)C(=O)N[C@@H](CCCN=C(N)N)C(=O)N[C@@H](Cc2c[nH]c3ccccc23)C(=O)N1)C(=O)N[C@H](C(=O)NCC(N)=O)C(C)C`, the concentration giving a half-maximal response (EC50) in test [1] was more than 10000 nM.
The same measure, in the same setting: next, `CC(C)[C@H](NC(=O)[C@@H]1CCC(=O)N[C@@H](Cc2c[nH]cn2)C(=O)N[C@H](Cc2ccccc2)C(=O)N[C@@H](CCCN=C(N)N)C(=O)N[C@@H](Cc2c[nH]c3ccccc23)C(=O)N1)C(=O)N[C@H](C(=O)NCC(N)=O)C(C)C`: 825 nM.
In turn, `CC(C)[C@H](NC(=O)[C@@H]1CCC(=O)NCC(=O)N[C@@H](Cc2cnc[nH]2)C(=O)N[C@@H](Cc2ccccc2)C(=O)N[C@@H](CCCNC(=N)N)C(=O)N[C@@H](Cc2c[nH]c3ccccc23)C(=O)N1)C(=O)N[C@H](C(=O)NCC(N)=O)C(C)C` came in with an EC50 in test [1] of 5200 nM. In addition, the IC50 entry in test [2] is recorded as “Not Active”.
Take `CC(C)[C@H](NC(=O)[C@@H]1CCC(=O)NCC(=O)N[C@@H](Cc2cncn2COCc2ccccc2)C(=O)N[C@H](Cc2ccccc2)C(=O)N[C@@H](CCCN=C(N)N)C(=O)N[C@@H](Cc2c[nH]c3ccccc23)C(=O)N1)C(=O)N[C@H](C(=O)NCC(N)=O)C(C)C`: in test [1], the half-maximal effective concentration (EC50) is more than 10000 nM.

(Values after ChEMBL document CHEMBL1136811, “Design of novel chimeric melanotropin-deltorphin analogues. Discovery of the first potent human melanocortin 1 receptor antagonist” (J Med Chem, 2003).)
